From ChEMBL document CHEMBL1136735, “Design and synthesis of naphthalenic dimers as selective MT1 melatoninergic ligands” (J Med Chem, 2003)
Active and inactive are the calls of the source. The rule behind the calls is not given here.

What was measured:
[1] = target: T1, Melatonin receptor type 1B (Homo sapiens, UniProt P49286); test: Binding affinity for human Melatonin receptor type 1B stably transfected in human embryonic kidney cells (HEK 293) using 2-[125I]iodomelatonin as radioligand; type: cell-based, HEK293
T1 sequence (P49286 whole entry): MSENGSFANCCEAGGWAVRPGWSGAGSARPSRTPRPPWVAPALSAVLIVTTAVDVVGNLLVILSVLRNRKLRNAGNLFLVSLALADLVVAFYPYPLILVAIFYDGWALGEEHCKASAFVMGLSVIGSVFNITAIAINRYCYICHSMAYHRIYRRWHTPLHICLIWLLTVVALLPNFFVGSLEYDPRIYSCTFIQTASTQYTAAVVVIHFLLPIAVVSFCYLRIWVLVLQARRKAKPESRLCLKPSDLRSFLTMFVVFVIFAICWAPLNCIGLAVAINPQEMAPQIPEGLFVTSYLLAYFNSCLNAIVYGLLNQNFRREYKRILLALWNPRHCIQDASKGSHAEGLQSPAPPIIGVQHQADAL

[2] = target: T2, Melatonin receptor type 1A (Homo sapiens, UniProt P48039); test: Binding affinity for human Melatonin receptor type 1A stably transfected in human embryonic kidney cells (HEK 293) using 2-[125I]iodomelatonin as radioligand; type: cell-based, HEK293
T2 sequence (P48039 whole entry): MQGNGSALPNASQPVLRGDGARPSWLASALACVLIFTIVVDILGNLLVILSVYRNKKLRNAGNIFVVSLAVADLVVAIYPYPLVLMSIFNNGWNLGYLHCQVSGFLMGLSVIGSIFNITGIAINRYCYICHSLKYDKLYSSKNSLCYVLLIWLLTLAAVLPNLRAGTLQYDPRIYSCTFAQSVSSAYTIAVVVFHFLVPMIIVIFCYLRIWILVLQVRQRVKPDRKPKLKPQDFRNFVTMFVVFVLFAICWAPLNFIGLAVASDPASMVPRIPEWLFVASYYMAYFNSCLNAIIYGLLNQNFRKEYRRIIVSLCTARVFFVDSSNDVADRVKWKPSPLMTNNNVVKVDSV

[3] = target: T3, Melatonin receptor type 1B (Homo sapiens) (UniProt P49286); conditions: CHO
T3 sequence (whole entry): T1 sequence (P49286 whole entry)

[4] = target: T2, Melatonin receptor type 1A; conditions: CHO

SMILES | Ki [1] [nM] | Ki [2] [nM] | IA [3] | IA [4]
CC(=O)NCCc1cccc2ccc(OCCOc3ccc4cccc(CCNC(C)=O)c4c3)cc12 | 182 | 2.05 |  | 
CC(=O)NCCc1cccc2ccc(OCCCCCCCCOc3ccc4cccc(CCNC(C)=O)c4c3)cc12 | 0.18 | 0.05 |  | 
CC(=O)NCCc1cccc2ccc(OCCCCCCCCCCOc3ccc4cccc(CCNC(C)=O)c4c3)cc12 | 0.04 | 0.03 |  | 
CC(=O)NCCc1cccc2ccc(OCCCCCCOc3ccc4cccc(CCNC(C)=O)c4c3)cc12 | 2.33 | 0.08 |  | 
CC(=O)NCCc1cccc2ccc(OCCCOc3ccc4cccc(CCNC(C)=O)c4c3)cc12 | 112 | 0.5 | inactive | inactive
CC(=O)NCCc1cccc2ccc(OCCCCCOc3ccc4cccc(CCNC(C)=O)c4c3)cc12 | 1.74 | 0.05 |  | 
CC(=O)NCCc1cccc2ccc(OCCCCOc3ccc4cccc(CCNC(C)=O)c4c3)cc12 | 72.7 | 0.6 |  | 
